Results reported in US11478457B2, “Castration-resistant prostate cancer” (priority 2015, dated 2022).
Where a chain is given by its changes, count along the chain named.

Assays:
[1] = target: T1, T325D (obligate dimer) UGDH (Homo sapiens, UniProt O60701, T325D); assay: Thermal stability of UGDH, T325D; type: binding
T1 sequence (O60701 1-494 T325D): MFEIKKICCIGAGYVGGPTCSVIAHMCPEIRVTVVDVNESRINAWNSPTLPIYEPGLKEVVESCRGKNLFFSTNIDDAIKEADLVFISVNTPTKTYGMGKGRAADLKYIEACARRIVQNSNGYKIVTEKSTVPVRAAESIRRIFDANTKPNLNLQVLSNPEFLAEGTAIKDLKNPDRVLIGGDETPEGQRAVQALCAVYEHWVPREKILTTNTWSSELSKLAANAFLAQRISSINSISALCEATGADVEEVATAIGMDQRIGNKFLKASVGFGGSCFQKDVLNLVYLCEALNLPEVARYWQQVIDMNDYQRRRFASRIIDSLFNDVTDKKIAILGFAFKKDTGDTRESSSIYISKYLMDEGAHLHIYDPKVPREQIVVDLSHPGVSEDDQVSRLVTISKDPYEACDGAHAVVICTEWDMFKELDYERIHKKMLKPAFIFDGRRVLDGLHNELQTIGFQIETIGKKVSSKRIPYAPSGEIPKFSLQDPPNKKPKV
Experimental: (§1) FIG. 8A-8D show UDP-xylose effects on the thermal stability of WT, T325A (inducible hexamer), and T325D (obligate dimer) UGDH. […] Statistical analyses were performed using a two-way ANOVA with Bonferroni post tests on PRISM.

WT UGDH [2] = target: T2, WT UGDH (Homo sapiens, UniProt O60701); assay: UGDH inhibition assay (IC50, Ki), WT enzyme; type: biochemical; conditions: for IC50: 50 μM UDP-glc and 1 mM NAD+; for Mode of inhibition: UGDH
T2 sequence (O60701 1-494): T1 sequence (O60701 1-494 T325D) with D325T
Experimental: (§2) Ki values were determined by varying [UDP-glc] and holding NAD+ at saturating concentrations.
(§3) IC50 experiments were performed as described above (see e.g., Example 2).

UGDH T325A = target: T3, UGDH T325A (Homo sapiens, UniProt O60701, T325A); assay: Limited trypsin proteolysis of UGDH, T325A
T3 sequence (O60701 1-494 T325A): T1 sequence (O60701 1-494 T325D) with D325A
Experimental: (§4) UDP-xylose [20 μM] protected T325A apo from trypsin digestion (red star) and only slightly affected the other forms. […] Each assay contained 10 μg of enzyme, 10 ng Trypsin, and combinations of substrate, cofactor, and UDP-xylose, which was incubated 2.5 h, followed by SDS-PAGE.
(§5) The same procedures from above (see e.g., Example 7) were followed.

WT UGDH [3] = target: T2, WT UGDH; assay: Thermal stability of UGDH, WT; type: binding
Experimental: as §1

[4] = target: T4, T325A (inducible hexamer) UGDH (Homo sapiens, UniProt O60701, T325A); assay: Thermal stability of UGDH, T325A; type: binding
T4 sequence (O60701 1-494 T325A): T1 sequence (O60701 1-494 T325D) with D325A
Experimental: as §1

[5] = target: T5, T325A-UGDH (inducible hexamer) (Homo sapiens, UniProt O60701, T325A); assay: UGDH inhibition assay (IC50, Ki), T325A mutant; type: biochemical
T5 sequence (O60701 1-494 T325A): T1 sequence (O60701 1-494 T325D) with D325A
Experimental: as §2, §3

UGDH T325D = target: T6, UGDH T325D (Homo sapiens, UniProt O60701, T325D); assay: Limited trypsin proteolysis of UGDH, T325D; conditions: 20 μM, 2.5 h
T6 sequence (O60701 1-494 T325D): T1 sequence (O60701 1-494 T325D)
Experimental: as §4, §5

T325A-UGDH = target: T7, T325A-UGDH (Homo sapiens, UniProt O60701, T325A); assay: UGDH kinetic characterization, T325A; type: biochemical; conditions: substrate/cofactor varied
T7 sequence (O60701 1-494 T325A): T1 sequence (O60701 1-494 T325D) with D325A
From the text: (§6) T325A and T325D are engineered inducible hexameric and obligate dimeric UGDH species, respectively.

WT UGDH [6] = target: T2, WT UGDH; assay: UGDH kinetic characterization, WT; type: biochemical; conditions: substrate/cofactor varied
From the text: as §6

T325D-UGDH = target: T8, T325D-UGDH (Homo sapiens, UniProt O60701, T325D); assay: UGDH kinetic characterization, T325D; type: biochemical; conditions: substrate/cofactor varied
T8 sequence (O60701 1-494 T325D): T1 sequence (O60701 1-494 T325D)
From the text: as §6

[7] = target: T9, UDP-glucose dehydrogenase (Homo sapiens, UniProt O60701); assay: High throughput screening for inhibitors of UDP-glucose dehydrogenase (NADH fluorescence); type: biochemical; conditions: read-out: POC (Percent of Controls); for inhibition at 25 µg/mL (stock): compound plates 20 μL/well of 25 μg/mL compound in 2.5% DMSO, relative to DMSO negative and UDP-xylose positive controls, higher POC = more inhibitory
T9 sequence (O60701 1-494): T1 sequence (O60701 1-494 T325D) with D325T

WT UGDH [8] = target: T2, WT UGDH; assay: Limited trypsin proteolysis of UGDH, WT; conditions: WT ternary complexes; 500 μM
Experimental: as §4, §5

[9] = target: T10, T325D-UGDH (obligate dimer) (Homo sapiens, UniProt O60701, T325D); assay: UGDH inhibition assay (IC50, Ki), T325D mutant; type: biochemical; conditions: required 4 μM T325D instead of 1 μM
T10 sequence (O60701 1-494 T325D): T1 sequence (O60701 1-494 T325D)
Experimental: as §2, §3

## CCC(C)(O)c1nnn(-c2nonc2N)c1C(C)(O)CC (stereo not drawn) [Compound 1, 2,2′-[1-(4-amino-1,2,5-oxadiazol-3-yl)-1H-1,2,3-triazole-4,5-diyl]di(2-butanol)]
[1]; UDP-glcA complex with T325D
  Effect on thermal stability: decrease thermal stability
WT UGDH [2]; WT-UGDH
  IC50: 261 ± 6.2 µM
UGDH T325A; T325A with UDP-glcA and UDP-glcA with NADH, 750 μM
  Effect on trypsin digestion: significantly affects
WT UGDH [3]; UDP-glcA complex with WT
  Effect on thermal stability: decrease thermal stability
[4]; UDP-glcA complex with T325A
  Effect on thermal stability: decrease thermal stability
[5]; varying [UDP-glc], NAD+ at saturating concentrations
  Ki: 421 ± 118 µM

## O=c1ccn([C@@H]2O[C@H](COP(=O)(O)OP(=O)(O)O[C@H]3OC[C@@H](O)[C@H](O)[C@H]3O)[C@@H](O)[C@H]2O)c(=O)[nH]1 [UDP-xylose, reference compound]
[1]; NAD+ complex with T325D
  Effect on thermal stability: significantly increase thermal stability
WT UGDH [2]
  Mode of inhibition: competitive inhibitor
WT UGDH [2]; WT-UGDH
  IC50: 0.58 ± 0.09 µM
WT UGDH [2]; WT-UGDH, varying [UDP-glc], NAD+ at saturating concentrations
  Ki: 2670 ± 540 nM
UGDH T325A; T325A apo, 20 μM, 2.5 h
  Effect on trypsin digestion: protected
WT UGDH [3]; NAD+ complex with WT
  Effect on thermal stability: significantly increase thermal stability
WT UGDH [3]; apo WT
  Effect on thermal stability: increased the thermal stability
UGDH T325D; T325D apo and UDP-glc forms
  Effect on trypsin digestion: did not affect
UGDH T325D; T325D complexes with NAD+, NADH, and UDP-glcA
  Effect on trypsin digestion: significantly protected
[4]; NAD+ complex with T325A
  Effect on thermal stability: significantly increase thermal stability
[4]; apo T325A
  Effect on thermal stability: increased the thermal stability

## NC(=O)c1ccc[n+]([C@@H]2O[C@H](COP(=O)([O-])OP(=O)(O)OC[C@H]3O[C@@H](n4cnc5c(N)ncnc54)[C@H](O)[C@@H]3O)[C@@H](O)[C@H]2O)c1 [NAD+]
T325A-UGDH
  Km: 1.68 ± 0.455 mM
  VMAX: 103 ± 8.5 nmol/min/mg
WT UGDH [6]
  Km: 1.03 ± 0.215 mM
  VMAX: 206.1 ± 13.0 nmol/min/mg
T325D-UGDH
  Km: 1.2 ± 0.29 mM
  VMAX: 38.0 ± 2.5 nmol/min/mg

## CCc1c(C)sc(NC(=O)c2ccoc2C)c1C(N)=O
[7]
  inhibition at 25 µg/mL (stock): 50%

## Cc1ccc(S(=O)(=O)Nc2cccc3ccc(-n4nc(C)cc4C)nc23)cc1
[7]
  inhibition at 25 µg/mL (stock): 148%

## CCc1c(C)sc(NC(=O)c2cccc([N+](=O)[O-])c2C)c1C(N)=O
[7]
  inhibition at 25 µg/mL (stock): 58%

## N#CSC(C#N)Cc1cccc(Cl)c1 (stereo not drawn)
[7]
  inhibition at 25 µg/mL (stock): 74%

## c1ccc(CNc2nc(-c3ccccc3)[n+](-c3ccccc3)s2)cc1
[7]
  inhibition at 25 µg/mL (stock): 106%

## N#CSC(C#N)Cc1cccc([N+](=O)[O-])c1 (stereo not drawn)
[7]
  inhibition at 25 µg/mL (stock): 88%

## Brc1ccc(C2Nc3ccccc3N2)o1
[7]
  inhibition at 25 µg/mL (stock): 65%

## CN(C)c1ccc(NC(=O)C2C3C=CC(C3)C2C(=O)O)cc1 (stereo not drawn)
[7]
  inhibition at 25 µg/mL (stock): 56%

## O=C1C(Cl)=C(Cl)C(=O)C(Cl)=C1Cl
[7]
  inhibition at 25 µg/mL: 79%

## Nc1ccc(Cc2ccc(N)c(O)c2)cc1O
[7]
  inhibition at 25 µg/mL (stock): 62%

## COCCN1C(=O)C(O)=C(C(=O)c2ccc(OC)c(C)c2)C1c1ccncc1 (stereo not drawn)
[7]
  inhibition at 25 µg/mL (stock): 51%

## Nc1ccc(C(=O)c2ccc(N)c(N)c2)cc1N
[7]
  inhibition at 25 µg/mL (stock): 46%

## O=[N+]([O-])c1ccc2[nH]c(-c3ccco3)nc2c1
[7]
  inhibition at 25 µg/mL (stock): 46%

## O=C(Nc1ccc([N+](=O)[O-])cc1)c1ccc(Br)o1
[7]
  inhibition at 25 µg/mL (stock): 62%

## CCC(=O)Nc1ccc(C(=O)Nc2ccc(Cl)cc2C(=O)O)cc1
[7]
  inhibition at 25 µg/mL (stock): 50%

## O=C(O)CCc1ccc(-c2cccs2)o1 [Compound 31, 3-[5-(2-thienyl)-2-furyl]propanoic acid]
[1]; T325D, all binary complexes except UDP-glucose
  Effect on thermal stability: decreasing thermal stability
WT UGDH [2]
  Mode of inhibition: allosteric inhibitor
WT UGDH [2]; WT-UGDH
  IC50: 146.8 ± 1.05 µM
UGDH T325A; T325A ternary complexes, 500 μM
  Effect on trypsin digestion: significantly affects
WT UGDH [8]
  Effect on trypsin digestion: significantly affects
[9]
  IC50: 799.4 ± 0.05 µM
[4]; T325A, all binary complexes except UDP-glucose
  Effect on thermal stability: decreasing thermal stability
[5]
  IC50: 86.98 ± 0.03 µM

## O=c1c(O)c(-c2cc(O)c(O)c(O)c2)oc2cc(O)cc(O)c12
[7]
  inhibition at 25 µg/mL (stock): 91%

## NC(=O)c1c(-c2cccs2)csc1N
[7]
  inhibition at 25 µg/mL (stock): 46%

## N#CSC(C#N)Cc1ccccc1 (stereo not drawn)
[7]
  inhibition at 25 µg/mL (stock): 59%

## O=C(/C=C/c1ccco1)c1ccc(NC(=O)c2ccco2)cc1
[7]
  inhibition at 25 µg/mL (stock): 55%

## CC(C)c1cc2c(c(O)c1O)[C@@]1(C(=O)O)CCCC(C)(C)C1CC2 (stereo partly drawn)
[7]
  inhibition at 25 µg/mL (stock): 66%

## O=C(O)CCc1ccc(-c2cccs2)o1 [drawing 227]
[7]
  inhibition at 25 µg/mL (stock): 87%

## COc1ccc(NS(=O)(=O)c2cc(C(=O)Nc3ccc(C(=O)O)cc3)ccc2C)cc1
[7]
  inhibition at 25 µg/mL (stock): 61%

## COc1ccc(-c2nnc(N)o2)cc1
[7]
  inhibition at 25 µg/mL (stock): 86%

## CCc1ccc(NC(Nc2ccc(CC)cc2)=C(S(=O)(=O)CC)S(=O)(=O)CC)cc1
[7]
  inhibition at 25 µg/mL (stock): 47%

## COCc1cc(C(C)(C)C)c(O)c(O)c1C(C)(C)C
[7]
  inhibition at 25 µg/mL (stock): 56%

## COc1cc(/C=C2\C(C)=C([N+](=O)[O-])CS2(=O)=O)ccc1O
[7]
  inhibition at 25 µg/mL (stock): 65%
